Biological target: Glutaminyl-peptide cyclotransferase (Homo sapiens, UniProt Q16769)
Test: Inhibition of N-terminal his6-tagged human recombinant glutaminyl cyclase expressed in Escherichia coli using H-Gln-AMC as substrate incubated for 60 mins in presence of pyroglutamyl peptidase

Sequence of Glutaminyl-peptide cyclotransferase (Q16769 whole entry): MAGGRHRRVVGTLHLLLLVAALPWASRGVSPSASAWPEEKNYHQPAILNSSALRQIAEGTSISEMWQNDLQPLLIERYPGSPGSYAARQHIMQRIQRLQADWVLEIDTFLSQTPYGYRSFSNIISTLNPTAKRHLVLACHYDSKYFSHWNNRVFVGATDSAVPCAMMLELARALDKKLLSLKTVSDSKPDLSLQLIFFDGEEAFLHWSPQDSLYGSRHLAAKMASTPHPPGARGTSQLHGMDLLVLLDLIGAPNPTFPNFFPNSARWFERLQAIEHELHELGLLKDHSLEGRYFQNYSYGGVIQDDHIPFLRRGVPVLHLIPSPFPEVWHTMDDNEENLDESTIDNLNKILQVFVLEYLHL

IC50: > 30 µM
SMILES: COc1ccc(S(=O)(=O)Nc2ccc(-c3cn[nH]c3)cc2)cc1
